Measured values reported in PubChem BioAssay AID330 (DTP/NCI, 2004).
Several values for one entry are separate records, joined by “and”; a condition that tells them apart may be missing. Equal values may be shown once. Toxic doses and inconclusive results are not listed. Rule for the calls: active = survival T/C of 150% or more; inactive = T/C below 125% in these data.

Test system: P388 leukemia ip, CD2F1 mice, survival T/C
Assay: NCI In Vivo Anticancer Drug Screen. Data for tumor model P388 Leukemia (intraperitoneal) in CD2F1 (CDF1) mice
Settings: endpoint: median survival time, higher = longer survival
In short: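 Mice carrying the transplanted tumor received test compound or vehicle. Survival was recorded in each group, and the value is the treated-group measurement divided by that of the vehicle-treated control group.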

[1] = dose: 50.0 mg/kg/injection, schedule: Q01DX005 (ip), vehicle: saline with Tween-80
[2] = dose: 100.0 mg/kg/injection, schedule: Q01DX005 (ip), vehicle: saline with Tween-80
[3] = dose: 200.0 mg/kg/injection, schedule: Q01DX005 (ip), vehicle: saline with Tween-80
[4] = dose: 50.0 mg/kg/injection, schedule: Q01DX005 (ip), vehicle: saline
[5] = dose: 100.0 mg/kg/injection, schedule: Q01DX005 (ip), vehicle: saline
[6] = dose: 200.0 mg/kg/injection, schedule: Q01DX005 (ip), vehicle: saline
[7] = dose: 60.0 mg/kg/injection, schedule: Q01DX005 (ip), vehicle: saline
[8] = dose: 50.0 mg/kg/injection, schedule: Q01DX009 (ip), vehicle: saline with Tween-80
[9] = dose: 12.5 mg/kg/injection, schedule: Q01DX009 (ip), vehicle: Klucel (hydroxypropylcellulose) (HPC)
[10] = dose: 25.0 mg/kg/injection, schedule: Q01DX009 (ip), vehicle: Klucel (hydroxypropylcellulose) (HPC)
[11] = dose: 50.0 mg/kg/injection, schedule: Q01DX009 (ip), vehicle: Klucel (hydroxypropylcellulose) (HPC)
[12] = dose: 60.0 mg/kg/injection, schedule: Q01DX005 (ip), vehicle: saline with Tween-80
[13] = dose: 120.0 mg/kg/injection, schedule: Q01DX005 (ip), vehicle: saline with Tween-80
[14] = dose: 240.0 mg/kg/injection, schedule: Q01DX005 (ip), vehicle: saline with Tween-80
[15] = dose: 100.0 mg/kg/injection, schedule: Q01DX009 (ip), vehicle: Klucel (hydroxypropylcellulose) (HPC)
[16] = dose: 200.0 mg/kg/injection, schedule: Q01DX009 (ip), vehicle: Klucel (hydroxypropylcellulose) (HPC)
[17] = dose: 6.25 mg/kg/injection, schedule: Q01DX005 (ip), vehicle: saline with Tween-80
[18] = dose: 12.5 mg/kg/injection, schedule: Q01DX005 (ip), vehicle: saline with Tween-80

Measured: T/C

O=C(O)C(Cc1cccs1)NC(=O)C(F)(F)F (centres undefined)
inactive: dose: 50.0 mg/kg/injection, schedule: Q01DX009 (ip), vehicle: saline + alcohol 99 % of control | dose: 100.0 mg/kg/injection, schedule: Q01DX009 (ip), vehicle: saline + alcohol 93 % of control | dose: 200.0 mg/kg/injection, schedule: Q01DX009 (ip), vehicle: saline + alcohol 92 % of control

Cc1ccc(-c2c(Br)c(OC(=O)CO[C@@H]3C[C@H](C)CC[C@H]3C(C)C)c(-c3ccc(C)cc3C)c(Br)c2OC(=O)CO[C@H]2C[C@@H](C)CC[C@@H]2C(C)C)c(C)c1
inactive: [1] 95 % of control | [2] 88 % of control | [3] 88 % of control

CN1CCN(C(=O)c2cccc3cccc(C(=O)O)c23)CC1
inactive: dose: 60.0 mg/kg/injection, schedule: Q01DX005 (ip), vehicle: water 103 % of control | dose: 120.0 mg/kg/injection, schedule: Q01DX005 (ip), vehicle: water 93 % of control | dose: 240.0 mg/kg/injection, schedule: Q01DX005 (ip), vehicle: water 100 % of control

[NH-]c1ccccc1[S-].[NH-]c1ccccc1[S-].[Zn]
inactive: dose: 100.0 mg/kg/injection, schedule: Q04DX003 (ip), vehicle: saline 98 % of control | dose: 200.0 mg/kg/injection, schedule: Q04DX003 (ip), vehicle: saline 95 % of control | dose: 400.0 mg/kg/injection, schedule: Q04DX003 (ip), vehicle: saline 95 % of control

CC(C)NC(=O)OCc1c(COC(=O)NC(C)C)c2n(c1-c1ccc(Cl)c(Cl)c1)CCS2=O (centres undefined)
inactive: dose: 25.0 mg/kg/injection, schedule: Q01DX005 (ip), vehicle: saline with Tween-80 100 % of control | [1] 97 % of control | [2] 87 % of control

OCC1OC(Oc2ncccn2)C(O)C1O (centres undefined)
inactive: [4] 97 % of control | dose: 50.0 mg/kg/injection, schedule: Q01DX005 (ip), vehicle: suspension in saline 99 % of control | [5] 99 % of control | dose: 100.0 mg/kg/injection, schedule: Q01DX005 (ip), vehicle: suspension in saline 99 % of control | [6] 101 % of control | dose: 200.0 mg/kg/injection, schedule: Q01DX005 (ip), vehicle: suspension in saline 98 % of control | dose: 400.0 mg/kg/injection, schedule: Q01DX005 (ip), vehicle: saline 104 % of control | dose: 400.0 mg/kg/injection, schedule: Q01DX005 (ip), vehicle: suspension in saline 99 % of control

Cn1c2ccccc2c(=O)c2c([N+](=O)[O-])ccc(NCCN)c21
inactive: [7] 109 % of control | dose: 120.0 mg/kg/injection, schedule: Q01DX005 (ip), vehicle: saline 114 % of control

BrCCc1ccc2ccccc2c1Br
inactive: dose: 50.0 mg/kg/injection, schedule: Q01DX005 (ip), vehicle: distilled water + Tween-80 + alcohol 111 % of control | dose: 100.0 mg/kg/injection, schedule: Q01DX005 (ip), vehicle: distilled water + Tween-80 + alcohol 109 % of control | dose: 200.0 mg/kg/injection, schedule: Q01DX005 (ip), vehicle: distilled water + Tween-80 + alcohol 105 % of control

O=C(Nc1cccc(C(=O)Nc2ccc(C3=NCCN3)cc2)c1)c1ccc(C2=NCCN2)cc1
inactive: dose: 6.25 mg/kg/injection, schedule: Q01DX009 (ip), vehicle: saline 118 % of control | dose: 6.25 mg/kg/injection, schedule: Q04DX003 (ip), vehicle: saline 100 % of control | dose: 12.5 mg/kg/injection, schedule: Q01DX009 (ip), vehicle: saline 118 % of control | dose: 12.5 mg/kg/injection, schedule: Q04DX003 (ip), vehicle: saline 100 % of control | dose: 25.0 mg/kg/injection, schedule: Q04DX003 (ip), vehicle: saline 100 % of control

O=C1N(c2cccc(F)c2)C(=O)N1c1cccc(F)c1
inactive: [8] 115 % of control | dose: 100.0 mg/kg/injection, schedule: Q01DX009 (ip), vehicle: saline with Tween-80 100 % of control | dose: 200.0 mg/kg/injection, schedule: Q01DX009 (ip), vehicle: saline with Tween-80 98 % of control

O=C(Nc1ccc(Cc2ccc(NC(=O)Nc3nccs3)cc2)cc1)Nc1nccs1
inactive: [9] 100 % of control | [10] 100 % of control and 95 % of control | [11] 98 % of control and 91 % of control

COC(=O)C1(CS(C)=O)NC(=S)NC(=O)C1C#N (centres undefined)
inactive: [12] 106 % of control | [13] 99 % of control | [14] 97 % of control

CCOC(=O)c1ccc(N=Cc2cccc([N+](=O)[O-])c2)cc1
inactive: [12] 91 % of control | [13] 89 % of control | [14] 90 % of control

CC(=O)/C(=C\c1ccc([N+](=O)[O-])o1)C(=O)CCN(C)C
inactive: dose: 7.5 mg/kg/injection, schedule: Q01DX005 (ip), vehicle: Klucel (hydroxypropylcellulose) (HPC) 97 % of control | dose: 15.0 mg/kg/injection, schedule: Q01DX005 (ip), vehicle: Klucel (hydroxypropylcellulose) (HPC) 107 % of control

COC(=O)c1ccn2c1CCC2
inactive: [10] 91 % of control | [11] 91 % of control | [15] 95 % of control | [16] 98 % of control | dose: 400.0 mg/kg/injection, schedule: Q01DX009 (ip), vehicle: Klucel (hydroxypropylcellulose) (HPC) 91 % of control

O=C(O)CCNC1=CC(=O)c2ccccc2C1=O
inactive: [11] 102 % of control | [15] 110 % of control

O=C1C=C(Nc2ccccc2C(=O)O)C(=O)C=C1Nc1ccccc1C(=O)O
inactive: [11] 107 % of control | [15] 110 % of control | [16] 113 % of control

C=C1C(=O)OC2/C=C(\C)C(OC(C)=O)C/C=C(\C)CC(OC(=O)/C(=C/CO)CO)C12 (centres undefined)
inactive: dose: 100.0 mg/kg/injection, schedule: Q01DX001 (ip), vehicle: Klucel (hydroxypropylcellulose) (HPC) 99 % of control | dose: 200.0 mg/kg/injection, schedule: Q01DX001 (ip), vehicle: Klucel (hydroxypropylcellulose) (HPC) 99 % of control | dose: 400.0 mg/kg/injection, schedule: Q01DX001 (ip), vehicle: Klucel (hydroxypropylcellulose) (HPC) 123 % of control

Brc1c(-c2ccccc2)nc2ccccc2c1Br
inactive: [1] 103 % of control | [2] 97 % of control | [3] 94 % of control

CC1=Nc2cccnc2N(C)N1C
inactive: dose: 15.0 mg/kg/injection, schedule: Q01DX005 (ip), vehicle: saline 94 % of control | dose: 30.0 mg/kg/injection, schedule: Q01DX005 (ip), vehicle: saline 98 % of control | [7] 98 % of control and 106 % of control

c1cc2sc3ccc(OCCCN4CCCCC4)cc3c2cc1OCCCN1CCCCC1
inactive: dose: 12.5 mg/kg/injection, schedule: Q01DX009 (ip), vehicle: saline with Tween-80 104 % of control | dose: 25.0 mg/kg/injection, schedule: Q01DX009 (ip), vehicle: saline with Tween-80 115 % of control | [8] 91 % of control

C=C(CO)CC(CC(=C)CCS(=O)(=O)c1ccccc1)S(=O)(=O)c1ccccc1 (centres undefined)
inactive: [12] 94 % of control | [13] 106 % of control | [14] 100 % of control

O=C(Nc1ccccc1)c1c(O)[nH]c(=S)[nH]c1=O
inactive: dose: 3.13 mg/kg/injection, schedule: Q01DX005 (ip), vehicle: saline with Tween-80 110 % of control | [17] 116 % of control | [18] 120 % of control
active: [1] 162 % of control and 201 % of control | dose: 75.0 mg/kg/injection, schedule: Q01DX009 (ip), vehicle: saline with Tween-80 210 % of control and 237 % of control and 240 % of control | dose: 175.0 mg/kg/injection, schedule: Q01DX009 (ip), vehicle: saline with Tween-80 283 % of control

CCOC(=O)N1CCN(C(=S)NNC(C)c2cc3ccccc3cn2)CC1 (centres undefined)
inactive: [17] 103 % of control | [18] 113 % of control

COc1ccc(OC)c(/C=C/c2ccc([N+](=O)[O-])cc2)c1
inactive: [11] 100 % of control | [15] 100 % of control | [16] 86 % of control

Nc1ccc(C(=O)CCl)c(Cl)c1
inactive: [9] 107 % of control | [10] 110 % of control | [11] 110 % of control and 116 % of control

COc1ccc(Cc2ccc3c(c2)OCO3)cc1C
inactive: [4] 104 % of control | [5] 104 % of control | [6] 111 % of control
